Measurements taken from US10342786B2, “P38 kinase inhibitors reduce DUX4 and downstream gene expression for the treatment of FSHD” (Fulcrum Therapeutics, Inc., priority 2017, dated 2019).

Columns and labels:
[1] = system: DUX4-fl mRNA; assay: DUX4 / DUX4-fl mRNA expression by qPCR in FSHD myotubes; assay type: cell-based, human
Method: In a 6 well plate, 450 μL Buffer RLT Plus was added. Lysate was homogenized by transfer the lysate to a gDNA Eliminator spin column placed in a 2 mL collection tube (supplied), centrifuged for 30 s at ≥8000×g (≥10,000 rpm) and discarded column while saving the flow-through. Then 250 μL of Ethanol (35% final) was added to the flow-through, and mixed well by pipetting, not centrifuged. Then samples were transferred, including any precipitate that may have formed, to an RNeasy MinElute spin column placed in a 2 mL collection tube (supplied). Then centrifuged for 15 s at ≥8000×g. Flow-through was discarded or collected for Protein precipitation. 700 μL Buffer RW1 to the RNeasy MinElute spin column was added then centrifuge for 15 s at ≥8000×g. and discard the flow-through. DNAse treatment was performed by gently mixing 10 μL DNAseI with 70 μL of Buffer RDD and added directly to the column, incubated at room temperature for 20 min. Then, 700 μL Buffer RW1 (per manufactures specification) to the RNeasy MinElute spin column, centrifuged for 15 s at >8000×g. and the flow-through discarded. 500 μL Buffer RPE was added to the RNeasy MinElute spin column centrifuged for 15 s at ≥8000×g and discarded the flow-through. 500 μL of 80% ethanol was added to the RNeasy MinElute spin column, centrifuged for 2 min at ≥8000×g to wash the spin column membrane and the collection tube was discarded with the flow-through. The RNeasy MinElute spin column was placed in a new 2 mL collection tube (supplied) centrifuged at full speed for 5 min to dry the membrane and the collection tube was discarded with the flow through. RNeasy MinElute spin column was placed in a new 1.5 mL collection tube (supplied). 14 μL RNase-free water was added directly to the center of the spin column membrane, and centrifuged for 1 min at full speed to elute the RNA. You should end up with about 12 μL of eluted RNA.
cDNA preparation. […] 10 seconds then read plate on QuantStudio7 as per manufactures instruction (Thermo). […]

[2] = system: active Caspase-3 in FSHD myotubes; assay: Apoptosis by active Caspase-3 in FSHD myotubes; assay type: cell-based, human; settings: FSHD1 and FSHD2 lines; vs healthy control line CTRL-FTCE-014
Method: Briefly, cells were fixed in 4% paraformaldehyde and […] for 10 min at room temperature. Cells were permeabilized with PBST (1×PBS solution with 0.1% Triton X-100) before blocking with 10% Normal Donkey Serum or 3% BSA (NDS) in PBST. Cells were then incubated with appropriately diluted primary antibodies in PBST with 5% NDS for 1 hours at room temperature or 12 hours at 4° C., washed with PB ST for 3 times at room temperature and then incubated with desired secondary antibodies in TBST with 5% NDS and DAPI to counter stain the nuclei. DUX4 was detected by immunocytochemistry using the E5-5 antibody in differentiated FSHD myotubes. Activated Caspase-3 was detected cell signaling antibody that we're using for ICC, Asp175 (https://www.cellsignal.com/products/primary-antibodies/cleaved-caspase-3-asp175-antibody/9661).
Apoptosis was measured by active Caspase-3 levels in FSHD myotubes in vitro as described in Materials and Methods. Apoptosis was detected in a sporadic manner in a subset of myotubes in culture as shown by the white circles and magnified region in FIG. 9A. Active Caspase-3 signal was quantified in FSHD myotubes that had been treated with FTX-1821 at different concentrations (FIG. 9B). […] No change in active Caspase-3 signal was observed following DMSO treatment.

With “FTX-2: DUX4 sequence-directed antisense oligonucleotide purchased from Exiqon, CAGCGTCGGAAGGTGG (SEQ ID NO: 1) (listed as DNA, chemistry not given here)” the DUX4 expression ([1]; 1 μM ASO, FSHD myotubes vs DMSO) was “reduced amounts” and the DUX4 expression ([1]; different dilutions of the ASO, FSHD myotubes) was “dose dependent reduction”.
For Cn1c(=O)c(Oc2ccc(F)cc2F)cc2cnc(NC(CCO)CCO)nc21 [Pamapimod, 6-(2,4-difluorophenoxy)-2-((1,5-dihydroxypentan-3-yl)amino)-8-methylpyrido[2,3-d]pyrimidin-7(8H)-one], the “apoptosis (active caspase-3)” value [2] was “reduction” and the “DUX4-fl mRNA levels normalized to POLR2A mRNA” value ([1]; 10, 100, and 1000 nM, FSHD myotubes, compared to DMSO) was “dose-dependently reduced”.
